In patent US20230303570A1, “KINASE INHIBITORS AND USES THEREOF” (ABM Therapeutics Corporation, priority 2020, published 2023):

Legend:
Assay type in all cases: biochemical
[1] = target: c-Kit (Homo sapiens, UniProt P10721); assay: cKit kinase mobility shift assay
Procedure: (§1) The effect of the compounds on the activity of cKit, RET and AXL kinases were assessed by Mobility shift assay. • 1. 1× kinase base buffer and stop buffer for testing kinases were prepared • 1-1) 1× Kinase base buffer (50 mM HEPES, pH 7.5, 0.01% Triton X-100) • 1-2) Stop buffer (100 mM HEPES, pH 7.5, 0.015% Brij-35, 0.2% Coating Reagent #3, 50 mM EDTA) • 2. Compound and assay plate preparation: the compound was diluted to 50× of the final desired highest inhibitor concentration in reaction by 100% DMSO. 100 μl of this compound dilution was transferred to a well in a 96-well plate. For example, if the highest desired concentration was 5 μM, then 250 μM of compound DMSO solution was prepared in this step. For all compounds, the compound was serially diluted by transferring 10 μl to 70 μl of 100 DMSO in the next well and so forth for a total of 5 concentrations. 100 μl of 100% DMSO was added to two empty wells for no compound control and no enzyme control in the same 96-well plate. The plate was labeled as source plate. The intermediate plate was prepared by transferring 10 μl of compound from source plate to a new 96-well plate as the intermediate plate, adding 90 μl of 1× kinase buffer to each well of the intermediate plate, mixing the compounds in intermediate plate for 10 min on shaker. 5 μl of each well from the 96-well intermediate plate were transferred to a 384-well plate in duplicates. For example, A1 of the 96-well plate was transferred to A1 and A2 of the 384-well plate. A2 of the 96-well plate was transferred to A3 and A4 of the 384-well plate, and so on. • 4. Kinase reaction: The assay plate already contained 5 μl of compound in 10% DMSO. A 2.5× enzyme solution was prepared by adding kinases (cKit, RET, or AXL) and DTT in 1× kinase base buffer. 2.5× enzyme solution was transferred to the assay plate (by adding 10 μl of 2.5× enzyme solution to each well of the 384-well assay plate). The plate was incubated at room temperature for 10 min. 2.5× peptide solution was prepared by adding FAM-labeled peptide, ATP, MgCl2 in the 1× kinase base buffer. 2.5× peptide solution was added to the assay plate by adding 10 μl of 2.5× peptide solution to each well of the 384-well assay plate. The plate was incubated at 28° C. for the specified period of time. 25 μl of stop buffer was added to stop reaction. Data was collected on Caliper.

[2] = target: T1, Axl (Homo sapiens, UniProt P30530); assay: AXL kinase mobility shift assay
T1 sequence (P30530 26-894): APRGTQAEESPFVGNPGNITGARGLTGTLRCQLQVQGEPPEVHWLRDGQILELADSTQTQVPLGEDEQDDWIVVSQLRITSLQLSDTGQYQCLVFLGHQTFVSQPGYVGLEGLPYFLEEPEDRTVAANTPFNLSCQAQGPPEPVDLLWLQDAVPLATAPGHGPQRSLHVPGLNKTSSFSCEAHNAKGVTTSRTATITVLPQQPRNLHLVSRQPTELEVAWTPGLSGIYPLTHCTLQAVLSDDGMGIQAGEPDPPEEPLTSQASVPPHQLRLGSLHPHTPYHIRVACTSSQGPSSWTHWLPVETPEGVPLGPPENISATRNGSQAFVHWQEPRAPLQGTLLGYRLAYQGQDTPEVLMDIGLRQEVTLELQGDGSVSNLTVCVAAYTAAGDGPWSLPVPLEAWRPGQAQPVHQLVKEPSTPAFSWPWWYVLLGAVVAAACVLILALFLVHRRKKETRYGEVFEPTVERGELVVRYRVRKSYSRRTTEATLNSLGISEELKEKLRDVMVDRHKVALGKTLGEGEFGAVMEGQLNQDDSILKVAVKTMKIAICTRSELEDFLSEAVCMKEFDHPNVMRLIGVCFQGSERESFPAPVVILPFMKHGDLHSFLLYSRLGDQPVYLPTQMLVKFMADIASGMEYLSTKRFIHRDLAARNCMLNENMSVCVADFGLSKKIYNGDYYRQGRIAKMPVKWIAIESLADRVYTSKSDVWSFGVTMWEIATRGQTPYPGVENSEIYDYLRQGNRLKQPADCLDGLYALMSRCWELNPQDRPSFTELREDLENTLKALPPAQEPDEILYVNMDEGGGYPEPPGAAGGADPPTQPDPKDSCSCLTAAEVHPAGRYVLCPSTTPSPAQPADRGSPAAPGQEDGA
Procedure: as §1

[3] = target: HPK1 (MAP4K1) (Homo sapiens, UniProt Q92918); assay: HPK1 (MAP4K1) kinase Lantha screen assay
Chain of HPK1 (MAP4K1) (Q92918 whole entry, species assumed): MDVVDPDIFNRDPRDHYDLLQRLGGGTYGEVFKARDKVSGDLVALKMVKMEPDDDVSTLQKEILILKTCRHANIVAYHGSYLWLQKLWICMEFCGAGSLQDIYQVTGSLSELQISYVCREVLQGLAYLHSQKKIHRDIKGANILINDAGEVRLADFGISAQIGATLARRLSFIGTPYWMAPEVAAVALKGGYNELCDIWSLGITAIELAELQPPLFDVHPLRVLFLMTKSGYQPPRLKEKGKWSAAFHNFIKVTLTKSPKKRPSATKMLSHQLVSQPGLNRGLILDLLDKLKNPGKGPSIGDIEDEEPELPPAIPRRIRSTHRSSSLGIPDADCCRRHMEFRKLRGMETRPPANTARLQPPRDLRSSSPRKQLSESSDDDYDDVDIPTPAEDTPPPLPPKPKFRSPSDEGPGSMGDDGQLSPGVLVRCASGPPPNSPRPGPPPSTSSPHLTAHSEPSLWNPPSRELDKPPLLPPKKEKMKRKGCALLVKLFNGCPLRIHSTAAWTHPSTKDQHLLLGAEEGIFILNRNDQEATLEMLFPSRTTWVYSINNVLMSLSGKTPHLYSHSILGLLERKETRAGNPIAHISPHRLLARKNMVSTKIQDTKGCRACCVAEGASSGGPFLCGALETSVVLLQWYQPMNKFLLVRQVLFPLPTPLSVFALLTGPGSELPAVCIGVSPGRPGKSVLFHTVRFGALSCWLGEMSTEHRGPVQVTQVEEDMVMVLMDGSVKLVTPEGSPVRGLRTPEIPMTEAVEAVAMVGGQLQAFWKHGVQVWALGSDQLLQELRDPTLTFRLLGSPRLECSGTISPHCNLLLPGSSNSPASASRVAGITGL
Summary of the method: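 Recombinant MAP4K1 preincubated 10 min with compound (6-point dilution, duplicates) in 50 mM HEPES pH 7.5, 10 mM MgCl2, then reacted with Fluorescein-PKC substrate and ATP for 90 min at room temperature. Antibody detection solution stopped reaction; after 60 min, TR-FRET read at ex 340 nm, em 520/495 nm.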

[4] = target: RET (Homo sapiens, UniProt P07949); assay: RET kinase mobility shift assay
Chain of RET (P07949 29-1114, species assumed): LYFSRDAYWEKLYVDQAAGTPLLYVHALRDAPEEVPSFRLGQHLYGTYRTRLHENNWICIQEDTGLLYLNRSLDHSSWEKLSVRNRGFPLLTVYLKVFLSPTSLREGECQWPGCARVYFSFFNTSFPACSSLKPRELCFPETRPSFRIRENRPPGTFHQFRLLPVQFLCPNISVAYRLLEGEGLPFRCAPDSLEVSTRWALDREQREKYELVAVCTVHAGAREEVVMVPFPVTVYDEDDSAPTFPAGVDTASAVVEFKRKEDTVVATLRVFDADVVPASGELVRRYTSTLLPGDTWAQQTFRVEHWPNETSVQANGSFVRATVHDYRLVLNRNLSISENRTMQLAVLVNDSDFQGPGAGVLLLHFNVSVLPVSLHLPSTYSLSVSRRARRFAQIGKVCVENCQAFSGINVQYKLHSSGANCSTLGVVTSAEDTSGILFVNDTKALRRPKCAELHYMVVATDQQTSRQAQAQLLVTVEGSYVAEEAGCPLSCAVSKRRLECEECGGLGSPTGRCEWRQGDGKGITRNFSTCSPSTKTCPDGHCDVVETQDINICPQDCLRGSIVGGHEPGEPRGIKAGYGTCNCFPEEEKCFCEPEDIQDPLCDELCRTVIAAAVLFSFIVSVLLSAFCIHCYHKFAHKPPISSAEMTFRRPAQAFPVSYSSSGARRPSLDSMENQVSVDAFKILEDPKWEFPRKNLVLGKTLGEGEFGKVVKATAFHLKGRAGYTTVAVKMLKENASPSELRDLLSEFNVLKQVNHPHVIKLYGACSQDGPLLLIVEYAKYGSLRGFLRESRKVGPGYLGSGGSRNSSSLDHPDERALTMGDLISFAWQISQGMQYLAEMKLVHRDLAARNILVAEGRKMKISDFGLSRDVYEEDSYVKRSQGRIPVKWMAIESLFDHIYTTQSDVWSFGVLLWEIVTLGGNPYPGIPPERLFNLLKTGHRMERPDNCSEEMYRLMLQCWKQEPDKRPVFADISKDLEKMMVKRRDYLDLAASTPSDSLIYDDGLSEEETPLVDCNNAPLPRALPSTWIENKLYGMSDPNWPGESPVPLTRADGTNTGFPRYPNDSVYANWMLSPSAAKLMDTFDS
Procedure: as §1

Chain of c-Kit (P10721 26-976): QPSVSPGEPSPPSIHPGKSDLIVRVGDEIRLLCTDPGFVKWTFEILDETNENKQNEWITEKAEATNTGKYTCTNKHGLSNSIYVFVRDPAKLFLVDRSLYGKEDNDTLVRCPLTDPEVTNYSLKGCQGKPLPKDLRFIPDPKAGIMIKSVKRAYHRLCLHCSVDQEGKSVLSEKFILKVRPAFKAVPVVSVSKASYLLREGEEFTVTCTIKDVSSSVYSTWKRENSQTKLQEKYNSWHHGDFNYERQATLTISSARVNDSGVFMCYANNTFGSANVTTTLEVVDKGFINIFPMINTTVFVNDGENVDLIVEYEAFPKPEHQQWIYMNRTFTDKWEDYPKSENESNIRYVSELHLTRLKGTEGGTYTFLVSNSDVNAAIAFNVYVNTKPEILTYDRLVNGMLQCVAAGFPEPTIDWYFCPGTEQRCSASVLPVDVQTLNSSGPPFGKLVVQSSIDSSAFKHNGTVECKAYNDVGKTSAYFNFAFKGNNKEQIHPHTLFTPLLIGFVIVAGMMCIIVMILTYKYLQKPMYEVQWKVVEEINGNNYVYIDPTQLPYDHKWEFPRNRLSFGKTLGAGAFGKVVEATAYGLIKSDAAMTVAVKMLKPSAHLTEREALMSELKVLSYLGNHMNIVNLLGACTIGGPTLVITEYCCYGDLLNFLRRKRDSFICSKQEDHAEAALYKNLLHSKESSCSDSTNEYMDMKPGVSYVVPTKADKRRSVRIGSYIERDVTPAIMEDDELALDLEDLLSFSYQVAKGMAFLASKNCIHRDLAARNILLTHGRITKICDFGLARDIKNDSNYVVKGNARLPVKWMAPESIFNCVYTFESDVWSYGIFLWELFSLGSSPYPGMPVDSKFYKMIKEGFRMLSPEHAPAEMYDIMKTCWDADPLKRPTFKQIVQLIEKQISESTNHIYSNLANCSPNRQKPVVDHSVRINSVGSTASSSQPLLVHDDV

| Structure (SMILES) | IC50 [1] [µM] | IC50 [2] [µM] | IC50 [3] [µM] | IC50 [4] [µM] |
| --- | --- | --- | --- | --- |
| CNc1ncc2c(n1)N1CCN=C1C(c1cc(NS(=O)(=O)c3ccccn3)c(F)cc1C)=C2 [Compound 292, N-(2-fluoro-4-methyl-5-(2-(methylamino)-8,9-dihydroimidazo[1′,2′:1,6]pyrido[2,3-d]pyrimidin-6-yl)phenyl)pyridine-2-sulfonamide] |  | > 10 |  |  |
| Cc1ccc(NS(=O)(=O)c2cc(F)ccc2F)c(F)c1C1=Cc2cnc(NC3COC3)nc2N2CCN=C12 [Compound 302, 2,5-difluoro-N-(2-fluoro-4-methyl-3-(2-(oxetan-3-ylamino)-8,9-dihydroimidazo[1′,2′:1,6]pyrido[2,3-d]pyrimidin-6-yl)phenyl)benzenesulfonamide] |  | > 10 |  |  |
| CNc1ncc2c(n1)N1CCN=C1C(c1cc(NC(=O)Nc3cc(C(F)(F)F)ccc3F)c(F)cc1C)=C2 [Compound 333, 1-(2-fluoro-4-methyl-5-(2-(methylamino)-8,9-dihydroimidazo[1′,2′:1,6]pyrido[2,3-d]pyrimidin-6-yl)phenyl)-3-(2-fluoro-5-(trifluoromethyl)phenyl)urea] | < 0.1 | > 10 |  |  |
| CNc1ncc2c(n1)N1CCN=C1C(c1cc(NC(=O)c3cn(C(C)C)c(=O)n(-c4ccc(F)cc4)c3=O)ccc1C)=C2 [Compound 193, 3-(4-fluorophenyl)-1-isopropyl-N-(4-methyl-3-(2-(methylamino)-8,9-dihydroimidazo[1′,2′:1,6]pyrido[2,3-d]pyrimidin-6-yl)phenyl)-2,4-dioxo-1,2,3,4-tetrahydropyrimidine-5-carboxamide] |  | > 10 | 0.1 to 10 |  |
| CNc1ncc2c(n1)N1CCN=C1C(c1cc(NS(=O)(=O)c3cccc(C(F)(F)F)c3)c(F)cc1C)=C2 [Compound 285, N-(2-fluoro-4-methyl-5-(2-(methylamino)-8,9-dihydroimidazo[1′,2′:1,6]pyrido[2,3-d]pyrimidin-6-yl)phenyl)-3-(trifluoromethyl)benzenesulfonamide] | > 10 | > 10 |  |  |
| CNc1ncc2c(n1)N1CCN=C1C(c1cc(NC(=O)Nc3cccc(C(F)(F)F)c3)c(F)cc1C)=C2 [Compound 330, 1-(2-fluoro-4-methyl-5-(2-(methylamino)-8,9-dihydroimidazo[1′,2′:1,6]pyrido[2,3-d]pyrimidin-6-yl)phenyl)-3-(3-(trifluoromethyl)phenyl)urea] | < 0.1 | > 10 | 0.1 to 10 |  |
| CNc1ncc2c(n1)N1CCN=C1C(c1cc(NS(=O)(=O)Cc3ccccc3)c(F)cc1C)=C2 [Compound 293, N-(2-fluoro-4-methyl-5-(2-(methylamino)-8,9-dihydroimidazo[1′,2′:1,6]pyrido[2,3-d]pyrimidin-6-yl)phenyl)-1-phenylmethanesulfonamide] |  | > 10 |  |  |
| CNc1ncc2c(n1)N1CCN=C1C(c1ccc(C(=O)Nc3cc(C(F)(F)F)ccn3)cc1C)=C2 [Compound 276, 3-methyl-4-(2-(methylamino)-8,9-dihydroimidazo[1′,2′:1,6]pyrido[2,3-d]pyrimidin-6-yl)-N-(4-(trifluoromethyl)pyridin-2-yl)benzamide] |  | > 10 | 0.1 to 10 |  |
| CNc1ncc2c(n1)N1CCN=C1C(c1c(C)ccc(NS(=O)(=O)c3ccccc3OC(F)(F)F)c1F)=C2 [Compound 299, N-(2-fluoro-4-methyl-3-(2-(methylamino)-8,9-dihydroimidazo[1′,2′:1,6]pyrido[2,3-d]pyrimidin-6-yl)phenyl)-2-(trifluoromethoxy)benzenesulfonamide] |  | > 10 |  |  |
| CNc1ncc2c(n1)N1CCN=C1C(c1c(C)ccc(NS(=O)(=O)c3ccccc3C(F)(F)F)c1F)=C2 [Compound 298, N-(2-fluoro-4-methyl-3-(2-(methylamino)-8,9-dihydroimidazo[1′,2′:1,6]pyrido[2,3-d]pyrimidin-6-yl)phenyl)-2-(trifluoromethyl)benzenesulfonamide] |  | > 10 |  |  |
| CNc1ncc2c(n1)N1CCN=C1C(c1c(C)ccc(NS(=O)(=O)c3c(F)cccc3F)c1F)=C2 [Compound 297, 2,6-difluoro-N-(2-fluoro-4-methyl-3-(2-(methylamino)-8,9-dihydroimidazo[1′,2′:1,6]pyrido[2,3-d]pyrimidin-6-yl)phenyl)benzenesulfonamide] |  | > 10 |  |  |

Other lines, results leading:

| IC50 [1] [µM] | IC50 [2] [µM] | IC50 [3] [µM] | IC50 [4] [µM] | Structure (SMILES) |
| --- | --- | --- | --- | --- |
| 0.1 to 10 | < 0.1 |  |  | CNc1ncc2c(n1)N1CCN=C1C(c1c(C)ccc(NS(=O)(=O)c3ccccc3Cl)c1F)=C2 [Compound 287, 2-chloro-N-(2-fluoro-4-methyl-3-(2-(methylamino)-8,9-dihydroimidazo[1′,2′:1,6]pyrido[2,3-d]pyrimidin-6-yl)phenyl)benzenesulfonamide] |
|  |  | 0.1 to 10 | < 0.1 | CNc1ncc2c(n1)N1CCN=C1C(c1cc(NC(=O)c3cc(C(F)(F)F)ccn3)ccc1F)=C2 [Compound 135, N-(4-fluoro-3-(2-(methylamino)-8,9-dihydroimidazo[1′,2′:1,6]pyrido[2,3-d]pyrimidin-6-yl)phenyl)-4-(trifluoromethyl)picolinamide] |
| < 0.1 | > 10 |  |  | CNc1ncc2c(n1)N1CCN=C1C(c1cc(NC(=O)Nc3cc(C(F)(F)F)ccc3Cl)c(F)cc1C)=C2 [Compound 335, 1-(2-chloro-5-(trifluoromethyl)phenyl)-3-(2-fluoro-4-methyl-5-(2-(methylamino)-8,9-dihydroimidazo[1′,2′:1,6]pyrido[2,3-d]pyrimidin-6-yl)phenyl)urea] |
| > 10 | > 10 |  |  | CNc1ncc2c(n1)N1CCN=C1C(c1cc(NS(=O)(=O)c3ccccc3F)ccc1C)=C2 [Compound 289, 2-fluoro-N-(4-methyl-3-(2-(methylamino)-8,9-dihydroimidazo[1′,2′:1,6]pyrido[2,3-d]pyrimidin-6-yl)phenyl)benzenesulfonamide] |
|  | > 10 |  |  | Cc1ccc(Nc2ncc3c(n2)N2CCN=C2C(c2cc(NC(=O)c4cn(C(C)C)c(=O)n(-c5ccc(F)cc5)c4=O)ccc2C)=C3)cn1 [Compound 266, 3-(4-fluorophenyl)-1-isopropyl-N-(4-methyl-3-(2-((6-methylpyridin-3-yl)amino)-8,9-dihydroimidazo[1′,2′:1,6]pyrido[2,3-d]pyrimidin-6-yl)phenyl)-2,4-dioxo-1,2,3,4-tetrahydropyrimidine-5-carboxamide] |
| 0.1 to 10 | > 10 |  |  | CNc1ncc2c(n1)N1CCN=C1C(c1c(C)ccc(NC(=O)Nc3ccccc3Cl)c1F)=C2 [Compound 336, 1-(2-chlorophenyl)-3-(2-fluoro-4-methyl-3-(2-(methylamino)-8,9-dihydroimidazo[1′,2′:1,6]pyrido[2,3-d]pyrimidin-6-yl)phenyl)urea] |
|  | > 10 |  |  | CNc1ncc2c(n1)N1CCN=C1C(c1ccc(C(=O)Nc3cc(C(F)(F)F)ccn3)c(F)c1)=C2 [Compound 270, 2-fluoro-4-(2-(methylamino)-8,9-dihydroimidazo[1′,2′:1,6]pyrido[2,3-d]pyrimidin-6-yl)-N-(4-(trifluoromethyl)pyridin-2-yl)benzamide] |
